Results: US12564600B2, “System for enhancing therapeutic compliance of the anti-cancer compound E7766” (Eisai R&D Management Co., Ltd., priority 2019, dated 2026)
Entries after “also recorded” stand apart in the source; their conditions may differ.

What was measured:
Type in all cases: in vitro ADME
[1] = target: T1, MRP2 (Homo sapiens, UniProt Q92887); assay: Transport in MRP2 expressing membrane vesicles
T1 construct: purchased Corning
Experimental: To study the interaction of Compound 1 with hepatic efflux (ABC) transporters, TransportoCells™ membrane vesicles expressing BCRP, BSEP, MRP2, and control vector vesicles were pre-incubation with vesicle uptake buffer (47 mmol L-1 MOPs-Tris, 65 mmol L-1 KCl, 7 mmol L-1 MgCl2, pH 7.4 for BCRP; 47 mmol L-1 MOPs-Tris, 2.5 mmol L-1 GSH, 65 mmol L-1 KCl, 7 mmol L-1 MgCl2, pH 7.4 for MRP2; and 10 mmol L-1 HEPES-Tris, 100 mmol L-1 KNO3, 12.5 mmol L-1 Mg(NO3)2, and 50 mmol L-1 sucrose, pH 7.4 for BSEP) at 37° C. for 10 minutes. The transport was initiated by adding of pre-warmed 25 mmol/L MgATP, 3 μmol L-1 of Compound 1 in presence or absence of inhibitors (3 μmol L-1 of Novobioncin for BCRP, 100 μmol L-1 of MK-571 for MRP2, and 20 μmol L-1 of Ketoconazole for BSEP). The transport was terminated at designated time by adding 200 μL ice-cold vesicle uptake buffer. The complete content was then rapidly filtrated using multi-screen HTS vacuum manifold, followed by 5 washes and filtrations. The plate was allowed to dry completely and then placed onto a 96-well receiver plate. A 50 μL of elute solution (75% methanol containing the internal standard) was added into each assay well followed by centrifugation at 2000 rpm for 5 minutes. […] The yield samples from two centrifugation were combined and analyzed by LC-MS/MS. […]

[2] = tested on: sandwich-cultured human hepatocytes (SCHH); assay: Hepatic uptake in sandwich-cultured human hepatocytes
Experimental: Hepatic uptake and hepatobiliary disposition of Compound 1 was evaluated in sandwich-cultured human hepatocytes (SCHH) prepared from one donor. For assessing hepatic uptake, Compound 1 was incubated for 1, 5, and 10 minutes and the solutions were collected and frozen at −80° C. until process for bioanalysis. The wells were then washed three times with ice cold Plus (+) Buffer and were frozen at −80° C. until processed for bioanalysis. Biliary excretion of compound 1 was assessed in SCHH utilizing B-CLEAR® Technology. Briefly, cell culture medium was removed, and hepatocytes were washed twice with warm Plus (+) or Minus (−) Buffer to maintain or disrupt tight junctions, respectively. The wash solutions were removed and replaced with fresh Plus (+) Buffer or Minus (−) Buffer. The hepatocytes were conditioned for 10 minutes at 37° C. The conditioning solutions were removed and replaced with dosing solutions for Compound 1. Following a 20 minute incubation, the solutions were collected and frozen at −80° C. until process for bioanalysis. The wells were then washed three times with ice cold Plus (+) Buffer. The plates were frozen at −80° C. until processed for bioanalysis. The biliary excretion index (BEI) was calculated according to following equation: […]

[3] = Permeability (Papp); settings: not told
[4] = target: T2, OATP1B3 (Homo sapiens, UniProt Q9NPD5); assay: Uptake in HEK293 cells overexpressing OATP1B3
T2 construct: expressed in transfected cells; host or cells: HEK293-FT
T2 sequence (Q9NPD5 1-702): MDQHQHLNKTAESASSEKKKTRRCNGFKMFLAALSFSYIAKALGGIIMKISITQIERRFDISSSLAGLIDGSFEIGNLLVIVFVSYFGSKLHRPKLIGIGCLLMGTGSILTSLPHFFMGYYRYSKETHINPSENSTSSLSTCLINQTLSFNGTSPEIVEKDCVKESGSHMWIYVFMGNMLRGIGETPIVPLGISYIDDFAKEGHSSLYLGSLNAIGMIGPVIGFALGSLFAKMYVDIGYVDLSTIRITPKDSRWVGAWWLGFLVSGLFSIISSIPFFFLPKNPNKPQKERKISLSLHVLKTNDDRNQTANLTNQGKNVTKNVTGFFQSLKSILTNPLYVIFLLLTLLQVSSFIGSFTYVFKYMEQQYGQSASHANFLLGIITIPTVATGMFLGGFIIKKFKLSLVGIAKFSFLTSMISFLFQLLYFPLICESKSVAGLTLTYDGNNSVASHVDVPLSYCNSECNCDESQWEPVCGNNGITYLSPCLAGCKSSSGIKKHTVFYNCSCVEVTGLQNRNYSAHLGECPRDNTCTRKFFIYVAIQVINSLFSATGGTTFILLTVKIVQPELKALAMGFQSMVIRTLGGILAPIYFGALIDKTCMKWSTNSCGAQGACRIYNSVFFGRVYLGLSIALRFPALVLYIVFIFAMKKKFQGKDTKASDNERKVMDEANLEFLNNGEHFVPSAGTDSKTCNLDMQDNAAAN
Experimental: TransportoCells™ (Corning, N.Y., USA) expressing OATP2B1, NTCP, and HEK293-FT cells stably transfected with the vector containing OATP1B1 cDNA or OATP1B3 cDNA or empty vector were grown in a Dulbecoo's modified Eagle's medium fortified with 10% fetal calf serum and 2 mmol/L sodium butyrate (for NTCP only) in a humidified incubator at 37° C. and 5% CO2. Cells were harvested at 90% confluence and then seeded in poly-D-lysine-coated 24-well 24 h prior to transporter assay. Cells were washed twice and pre-incubated with 200 μL of pre-warmed Krebs-Henseleit buffer. After pre-incubation, cells were incubated with 3 or 10 μmol L-1 of Compound 1 in presence or absence of 100 μmol L-1 of inhibitors (Rifamycin SV for OATP2B1, Troglitazone for NTCP, Rifamycin for OATP1B1 and OATP1B3). The transport reaction was terminated by aspirating the buffer from the wells at designated time. After washing three times with 200 μL of ice-cold Krebs-Henseleit buffer, the cells were lysed and the resulting cellular lysates were analyzed by LC-MS/MS.
Concentration-dependent uptake of Compound 1 via OATP1B1 and OATP1B3 were conducted with a concentration range of 0.25-100 μmol L-1 under linear uptake. All experiments were run in triplicates.

T1 sequence (Q92887 whole entry): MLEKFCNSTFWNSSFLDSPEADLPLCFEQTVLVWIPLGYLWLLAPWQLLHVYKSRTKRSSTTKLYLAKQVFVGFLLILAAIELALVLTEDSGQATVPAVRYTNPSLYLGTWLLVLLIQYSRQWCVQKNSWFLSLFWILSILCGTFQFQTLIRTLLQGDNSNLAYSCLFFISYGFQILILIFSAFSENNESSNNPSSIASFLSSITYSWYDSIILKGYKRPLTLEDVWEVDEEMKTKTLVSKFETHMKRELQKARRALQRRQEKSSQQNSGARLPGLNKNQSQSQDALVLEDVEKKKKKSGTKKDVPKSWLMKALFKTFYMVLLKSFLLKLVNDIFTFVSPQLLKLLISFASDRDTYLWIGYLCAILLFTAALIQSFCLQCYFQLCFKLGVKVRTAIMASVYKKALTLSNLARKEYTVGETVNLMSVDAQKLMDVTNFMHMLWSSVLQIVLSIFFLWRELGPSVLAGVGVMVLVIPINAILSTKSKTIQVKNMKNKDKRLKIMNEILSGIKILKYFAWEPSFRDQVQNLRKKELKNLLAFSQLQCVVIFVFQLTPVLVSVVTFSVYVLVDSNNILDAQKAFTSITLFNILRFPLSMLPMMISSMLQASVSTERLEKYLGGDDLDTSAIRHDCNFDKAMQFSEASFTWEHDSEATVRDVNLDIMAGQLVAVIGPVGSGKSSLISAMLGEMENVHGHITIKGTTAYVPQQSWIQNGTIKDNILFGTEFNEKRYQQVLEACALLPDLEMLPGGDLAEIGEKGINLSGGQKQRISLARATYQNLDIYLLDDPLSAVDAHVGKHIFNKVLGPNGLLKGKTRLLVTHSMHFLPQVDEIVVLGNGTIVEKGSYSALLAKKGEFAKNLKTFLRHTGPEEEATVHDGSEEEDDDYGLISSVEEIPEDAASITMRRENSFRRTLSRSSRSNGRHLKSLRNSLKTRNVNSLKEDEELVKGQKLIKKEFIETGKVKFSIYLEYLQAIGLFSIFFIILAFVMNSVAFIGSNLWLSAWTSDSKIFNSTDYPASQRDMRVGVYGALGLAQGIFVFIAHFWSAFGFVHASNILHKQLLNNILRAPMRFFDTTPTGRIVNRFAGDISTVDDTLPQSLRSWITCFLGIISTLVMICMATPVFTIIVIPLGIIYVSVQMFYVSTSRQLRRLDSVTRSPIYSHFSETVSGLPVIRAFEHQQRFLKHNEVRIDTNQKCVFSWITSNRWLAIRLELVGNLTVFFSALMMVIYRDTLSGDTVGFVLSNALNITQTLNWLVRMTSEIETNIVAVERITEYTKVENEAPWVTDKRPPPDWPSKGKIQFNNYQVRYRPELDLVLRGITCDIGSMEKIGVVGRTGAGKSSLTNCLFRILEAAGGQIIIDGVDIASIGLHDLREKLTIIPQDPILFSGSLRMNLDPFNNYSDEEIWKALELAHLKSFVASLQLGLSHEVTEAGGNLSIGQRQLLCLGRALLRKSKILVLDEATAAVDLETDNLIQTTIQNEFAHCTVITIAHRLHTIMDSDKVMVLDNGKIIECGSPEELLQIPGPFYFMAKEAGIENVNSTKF

O=[P@]1(S)OC[C@H]2O[C@@H]3[C@H](F)[C@@H]2O[P@](=O)(S)OC[C@H]2O[C@H]([C@H](F)[C@@H]2O1)n1cnc2c(ncnc21)NC/C=C/CNc1ncnc2c1ncn23 [Compound 1]
substrate of biliary efflux transporter MRP2 [1]: sequential biliary efflux; also recorded: substrate | concentration at which hepatic uptake is saturated ([2]; SCHH): > 1000 nM | dose proportionality of hepatic uptake ([2]; SCHH, 0.3 to 1 μM, 1 to 5 minutes of exposure): approximately dose-proportional | hepatic uptake at 4° C. relative to 37° C. ([2]; SCHH, incubation at 4° C.): < 7.7 % of 37 °C | mechanism of uptake in human hepatocytes ([2]; human hepatocytes): temperature-dependent active uptake | inhibition of hepatocyte uptake by transporter inhibitors ([2]; human hepatocytes, Rifampin, tetraethylammonium): could be inhibited by Rifampin but not by tetraethylammonium | Papp [3]: 0.36 ×10⁻⁶ cm/s | substrate of OATP1B3 ([4]; HEK293 cells overexpressing human OATP1B3): responsible for hepatic uptake; also recorded: substrate | Jmax (pmol/min/million cells), OATP1B3 ([4]; Simcyp input parameter, Table 3): 24.39 pmol/min/million cells | Km ([4]; human, HEK293-FT cells stably transfected with OATP1B3 cDNA, Simcyp input parameter, Table 3): 4 µM | contribution of OATP1B3 versus OATP1B1 in hepatobiliary clearance ([4]; phenotyping studies): predominant contribution of OATP1B3 over OATP1B1
